The values below come from the NIST ThermoML archive (doi:10.1016/j.jct.2017.03.010).

For the data set the following is noted: Liquid, Closed cell (Static) method.

Numbers after ± are expanded uncertainties.

With `FC(F)C(F)F` [1,1,2,2-tetrafluoroethane], the “vapor or sublimation pressure” value reads like this: (303.15 K) 613.8 ± 2.1 kPa; (313.15 K) 817.1 ± 2.7 kPa; (323.15 K) 1065.9 ± 3.5 kPa; (333.15 K) 1368.5 ± 4.5 kPa; (343.15 K) 1730.2 ± 5.7 kPa.
